Data taken from paper PMC9118553, “In Vivo Bioconcentration of 10 Anionic Surfactants in Rainbow Trout Explained by In Vitro Data on Partitioning and S9 Clearance” (Environmental Science & Technology, 2022).
“And” between values parts separate entries of the source, which are not always exact repeats. Equal entries are not always repeated. Where two headings read alike, the source gives them in different places.

How the values were obtained:
[1] = system: rainbow trout; assay: In vivo bioconcentration experiment with a mixture of anionic surfactants, flow-through aquaria, 10 °C, pH 7.8; conditions: for Concentration in fish: individual fish;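 on Uptake rate constant kU: L kg-1 h-1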
Procedure: The bioconcentration of a mixture of 10 anionic surfactants was measured in rainbow trout in water at pH 7.8. […] The experiment was conducted in flow-through aquaria with juvenile rainbow trout at 10 °C. Ethical approval for the experiments was obtained from Stockholms […] (decision 9967-2017). The fish, fish housing, fish handling, and procedure for introducing the mixture of […] chemicals were very similar to our previous study with cationic surfactants;[5] details are provided in Text S1. The experiment consisted of a 4-day exposure phase and a 7-day depuration phase. […] Water samples were collected and fish were sacrificed according to the schedule in Table S4. The water samples were collected just prior to the daily removal of feces from the aquarium. Triplicate samples were taken at each time point. […] The water/methanol mixture was analyzed using liquid chromatography-mass spectrometry (LC-MS)/MS as described below for fish. At each fish sampling, five fish were sacrificed. Following stunning and severance of the spinal cord, the whole fish were placed in a polyethylene bag, weighed, and immediately frozen at -20 °C. The weight of the individual fish at sacrifice was 24.0 ± 5.6 g. Three of the five fish from each time point were prioritized for analysis based on proximity to the median fish weight. Each fish was […] homogenized with an Ultra-turrax dispersing device. […] This mixture was homogenized in a bullet blender for 5 min and then placed in an ultrasound bath at 45 °C for 15 min. Following centrifugation for 15 min@3200 RCF, the supernatant was decanted and the extraction was repeated. The extracts were combined. For instrumental analysis, 5 μL of the fish extract or 60 μL of the water/methanol mixture (water samples) was separated on an Acquity UPLC BEH C18 column fitted with a BEH C18 pre-column and analyzed on a TSQ Quantiva triple quadrupole mass spectrometer. The mobile phase was methanol (10 mM ammonium acetate) and Milli-Q-filtered water (10 mM ammonium acetate) (see Table S5 for the liquid chromatography program). To avoid detergent blank peaks originating from cleaning mobile phase bottles, the methanol was prepared directly in the solvent bottle as delivered and Milli-Q was tapped into an empty methanol bottle. Furthermore, a guard column was fitted between the mobile phase and the autosampler to prevent background contamination from disturbing the analysis. All analytes were quantified against the BEHP internal standard, as it gave better reproducibility. […] The central goal of the analysis was to estimate kU and kT as well as the BCF (=kU/kT) from measurements of surfactant concentration in fish and water samples collected at different time points of the experiment. For the fish, only those time points were included for which CF(measured) was above the limit of quantitation (LOQ) in all three fish (data below the LOQ will have a positive bias; including them would result in a negative bias in kT). In this analysis, there exist two sources of uncertainty: first, uncertainty in the actual concentration in water CW at the time of sample collection and second, variability in the concentration in fish around the (expected) surfactant concentrations in fish assumed to follow model (1). We therefore set up a model in which we considered uncertainty in both water and fish measurements simultaneously by assuming a parametric model for the surfactant concentration in the water over time (either linear or quadratic) and accounted for the uncertainty in the corresponding parameters of the water model during the estimation of kU and kT. This was done in a joint Bayesian model that we estimated via Hamiltonian Monte Carlo. […]

[2] = Baseline screening BCF (0.0125 DMLW, equilibrium partitioning, no biotransformation)
From the text: Recently, the concept of a baseline screening BCF was introduced for surfactants, based on equilibrium partitioning assuming no biotransformation.[19] The baseline screening BCF for the study chemicals exceeded the measured BCF by 1–2.5 orders of magnitude (Table S16), providing further evidence that biotransformation is an important factor influencing the elimination—and thereby the BCF—of the anionic surfactants studied here in rainbow trout. The deviation of PFOA and PFOS from the regression between BCF and DMLW (Figure 1, upper panel) is attributable to them not being biotransformed.
Table S16: Comparison of the BCF (determined with the measured concentrations in water) and the baseline screening BCF (determined as 0.0125 DMLWa)
CHEMICAL Log BCF Log baseline BCF Log difference […]
a Droge, S. T. J.; Scherpenisse, P.; Arnot, J. A.; Armitage, J. M.; McLachlan, M. S.; Nichols, J.; von der Ohe, P.; Bonnell, M.; Hodges, G. Screening the baseline fish bioconcentration potential of various types of surfactants using phospholipid binding data. Environ. Sci.: Processes Impacts

[3] = determined using nominal concentrations in water
[4] = measured concentrations in water, simpler estimation method (Text S3), 95% confidence intervals in brackets

## CCCCC(CC)COC(=O)CC(C(=O)OCC(CC)CCCC)S(=O)(=O)O (stereo not shown) [DOSS, bis(2-ethylhexyl)sulfosuccinate]
[1]
  Uptake rate constant kU: 0.090 L kg^–1 h^–1
[1]; [3]
  BCF: 3.0 L kg-1 ww
  Uptake rate constant kU: 0.169 L/kg/h
[1]; determined with measured concentrations in water
  Log BCF: 0.15 L kg-1 ww
[1]; elimination phase, 97 h
  Concentration in fish: 69 ng g-1 ww and 70 ng g-1 ww
[1]; elimination phase, 98 h
  Concentration in fish: 25 ng g-1 ww and 34 ng g-1 ww
[1]; elimination phase, 100 h
  Concentration in fish: 92 ng g-1 ww and 49 ng g-1 ww and 45 ng g-1 ww
[1]; elimination phase, 103 h
  Concentration in fish: 35 ng g-1 ww and 33 ng g-1 ww
[1]; elimination phase, 120 h
  Concentration in fish: 14.2 ng g-1 ww and 36 ng g-1 ww and 13.5 ng g-1 ww
[1]; elimination phase, 128 h
  Concentration in fish: 15.7 ng g-1 ww and 17.8 ng g-1 ww
[1]; elimination phase, 144 h
  Concentration in fish: 4.1 ng g-1 ww and 6.4 ng g-1 ww and 24 ng g-1 ww
[1]; elimination phase, 168 h
  Concentration in fish: 2.3 ng g-1 ww and 7.9 ng g-1 ww and 3.0 ng g-1 ww
[1]; elimination phase, 192 h
  Concentration in fish: 0.75 ng g-1 ww and 4.2 ng g-1 ww and 0.92 ng g-1 ww
[1]; elimination phase, 264 h
  Concentration in fish: 4.5 ng g-1 ww and 2.9 ng g-1 ww and 0.40 ng g-1 ww
[1]; exposure phase, 1 h
  Concentration in fish: 10.9 ng g-1 ww and 5.8 ng g-1 ww and 17.8 ng g-1 ww
[1]; exposure phase, 2 h
  Concentration in fish: 11.0 ng g-1 ww and 7.5 ng g-1 ww
[1]; exposure phase, 3 h
  Concentration in fish: 17.4 ng g-1 ww and 15.2 ng g-1 ww
[1]; exposure phase, 4 h
  Concentration in fish: 21 ng g-1 ww and 42 ng g-1 ww and 106 ng g-1 ww
[1]; exposure phase, 6 h
  Concentration in fish: 32 ng g-1 ww and 25 ng g-1 ww
[1]; exposure phase, 24 h
  Concentration in fish: 59 ng g-1 ww and 41 ng g-1 ww
[1]; exposure phase, 48 h
  Concentration in fish: 66 ng g-1 ww and 56 ng g-1 ww
[1]; exposure phase, 72 h
  Concentration in fish: 59 ng g-1 ww and 78 ng g-1 ww
[1]; exposure phase, 96 h
  Concentration in fish: 62 ng g-1 ww and 67 ng g-1 ww
[1]; from measured concentrations in water, Bayesian estimate, 95% credible interval in brackets
  Uptake rate constant kU: 0.090 (0.074–0.110) L kg^–1 ww h^–1
[1]; kinetic BCF from measured concentrations in water, 95% credible interval in brackets
  BCF (kinetic): 1.42 (1.22–1.66) L kg^–1 ww
[1]; [4]
  BCF: 1.37 (14) L kg-1 ww
  Uptake rate constant kU: 0.088 (9) L kg-1 ww h-1
[1]; own values
  BCF: 1.42 L kg^–1
[1]; solved from eq 3 with kU, DMLW, gill area, fish 0.024 kg, membrane density 1 kg L^–1
  diffusion coefficient (D) in the epithelial membrane of the gills: 9.3 × 10^–9 m h^–1
[2]
  Log difference (baseline BCF vs BCF): 2.53 L kg-1 ww
[2]; determined as 0.0125 DMLW
  Log baseline BCF: 2.68 L kg-1 ww
